In patent EP0880540B1, “17-BETA-CYCLOPROPYL(AMINO/OXY) 4-AZA STEROIDS AS ACTIVE INHIBITORS OF TESTOSTERONE 5-ALPHA-REDUCTASE AND C17-20-LYASE” (Aventis Pharmaceuticals Inc., priority 1996, dated 1997):

What was measured:
[1] = target: T1, cynomolgus monkey C17,20 lyase (Macaca fascicularis, UniProt Q2XVA1); experiment: In vitro C17,20 lyase assay, testicular microsomes; assay type: biochemical; details: mean of duplicates
T1 construct: microsomal preparations of the enzyme from testicular tissue; from tissue; host or cells: cynomolgus monkey testes, microsomes
T1 sequence (Q2XVA1 1-508): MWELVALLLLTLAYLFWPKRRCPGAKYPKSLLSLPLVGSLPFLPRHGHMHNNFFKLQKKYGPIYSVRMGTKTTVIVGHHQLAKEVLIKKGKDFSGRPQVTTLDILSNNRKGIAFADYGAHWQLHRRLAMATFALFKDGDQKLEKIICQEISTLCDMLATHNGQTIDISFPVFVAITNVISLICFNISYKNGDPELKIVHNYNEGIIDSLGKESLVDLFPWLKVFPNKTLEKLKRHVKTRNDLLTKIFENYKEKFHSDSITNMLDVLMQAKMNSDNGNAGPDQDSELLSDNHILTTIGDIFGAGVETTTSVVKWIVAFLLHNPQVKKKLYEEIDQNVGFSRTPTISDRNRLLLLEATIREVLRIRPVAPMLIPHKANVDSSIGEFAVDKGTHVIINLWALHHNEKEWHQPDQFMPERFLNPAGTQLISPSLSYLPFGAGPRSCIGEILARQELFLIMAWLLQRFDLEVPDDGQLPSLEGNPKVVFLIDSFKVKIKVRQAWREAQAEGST
Protocol: In vitro C17,20 lyase assays: Compounds were tested for inhibition of cynomolgus monkey C17,20 lyase in vitro using microsomal preparations of the enzyme from testicular tissue. Testes were removed from anesthetized animals and flash frozen in liquid nitrogen. Microsomes were isolated as described in Schatzman et al., Anal. Biochem. 175, 219-226 (1988). The compound to be tested was dissolved in dimethyl sulfoxide and diluted in 0.05 M potassium phosphate buffer, pH 7.4, to give the desired concentrations of test compound, in an amount which contributed 0.1% v/v DMSO to the total assay volume. Assays contained 0.05 M potassium phosphate buffer, pH 7.4, an NADPH regenerating system (1 mM NADPH, 5 mM glucose-6-phosphate, 1 IU/mL glucose-6-phosphate dehydrogenase), test compound, substrate and microsomal protein in a total volume of 0.2 mL. Control assays contained all components, including dimethyl sulfoxide, but not test ccmpound. All assays were performed in duplicate. The test compound was incubated with 20 to 62 µg/mL microsomal protein, buffer, and the NADPH regenerating system described above at 34°C for 0 or 40 minutes. Aliquots of 180 µL were then removed and assayed for enzyme activity by addition to 7-[^3H]-17α-hydroxypregnenolone (11.2 mCi/mmole; 0.2 µCi per assay) plus unlabeled 17α-hydroxypregnenolone dissolved in DMSO, contributing 2.5% v/v to the final assay mix, and phosphate buffer to give a total substrate concentration of 0.05 µM (=Km) per assay and subsequent incubation at 34°C for 6 minutes. Each assay was terminated by addition of 5 mL of chloroform:methanol (2:1). Carrier steroids representing substrates and produces (17α-hydroxypregnenolone, dehydroepiandrosterone, and androst-5-ene-3β,17β-diol) and 0.8 mL of distilled, deionized water were also added at this time. The steroids were extracted by the method of Moore and Wilson (Methods in Enzymol., eds. O. Malley, B.W. and Hardman, J.G. 36, 1975, pp. 466-474). The organic phase containing the steroids was evaporated using nitrogen gas, the residues dissolved in 18% tetrahydrofuran (v/v) in hexane, and the steroids were separated by HPLC on a Si60 (5 µm) column (250 x 4 mm) using a gradient of 18-22% tetrahydrofuran (v/v) in hexane. Radioactivity in the steroid peaks was measured using a Radiomatic® Model ES or Model A515 Flo-One® detector.
The enzyme activity for each assay was calculated from the percent conversion of substrate to products, and the results were expressed as percent inhibition of control. The following results were obtained, wherein the values indicated are the mean of duplicate determinations: Table 1: […]

[2] = tested on: PC-82 Human Tumor; experiment: PC-82 human tumor growth in nude mice; assay type: in vivo, male nude mice; details: MDL 103432 and MDL 105831 50 mg/kg B.I.D., MDL 15910 15 mg/kg B.I.D., per os
Source text: As described in van Steenbrugge, G.J. et al., J. Urol 131: 812-817 (1984) van Steenbrugge G.J. et al., The Prostate 11: 195-210 (1987) and Redding, T.W. et al., Cancer Research 52, 2538-2544 (1992), male nude mice (Hsd:athymic, Nude-nu) were obtained from Harlan Sprague Dawley. Mice were housed in sterilized micro-isolators and fed autoclaved ABLE® rodent chow (Purina Mills Inc., St. Louis, MO) and deionized water, adlibitum. Tumor-donating mice were first anesthetized using sodium pentobarbital and then sacrificed by cervical dislocation. The tumor was subsequently excised and placed in a petri dish containing ice-cold Hanks balanced salt solution. Tumors were cut into 2-3 mm cubes for implantation. Recipient animals were first anesthetized with 50 mg/kg pentobarbital, then implanted, by use of a trocar, with tumor fragments (one per mouse) in the dorsal area. Animals were separated into two control groups, one with vehicle alone and the other castrated, and the treatment groups, where n is the number of animals in each group.
Animals were selected for treatment groups based on tumor size. Each test compound was prepared as a solution or suspension in a lecithin vehicle (L-α-phosphatidylcholine type XV-E) containing methylparaben and propylparaben at a dose volume of 10 cc/kg. Animals were treated for 42 days by oral gavage (per os) seven days per week. Twenty-four hours after the last treatment the animals were euthenized by CO2 and tumors were removed and weighed. During the study period, mice were weighed and palpated weekly for tumors. In Table 5, average tumor growth is determined from the corrected group means over a 28 day period after treatment was started. […] The following animal data was deleted before computation of the corrected mean data in Table 5, Fig. 1: animals 4 and 44; Fig. 2: animals 10, 38 and 42; Fig. 3: Animal 39; Fig. 4: Animals 8, 9 and 49; Fig. 5: Animals 37 and 40 and 41.
Table 5 illustrates the average tumor growth in animals treated with 4-aza-17β-(cyclopropyloxy)-5α-androstan-3-one (MDL 103432; 50 mg/kg B.I.D.) 4-aza-17β-(cyclopropylamino)-androst-5(6)-en-3-one (MDL 105831; 50 mg/kg B.I.D.) and flutamide (MDL 15,910; 15 mg/kg B.I.D.), a known androgen receptor antagonist. The average growth rate of each tested compound relative to the vehicle and castrated controls is consistent with the in vivo inhibition of androgens.

[3] = tested on: Dunning H Tumor; experiment: Dunning H tumor growth in rats; assay type: in vivo, male Copenhagen rats; details: MDL 105831 15 mg/kg/day PO, MDL 15910 50 mg/kg/day PO
Source text: As described in J.T. Isaacs & D.S. Coffey, Cancer Res. 41:5070-5075 (1981); W.J. Ellis & J.T. Issacs, Cancer Res. 45:6041-6050 (1985); T.W. Bedding & A.V. Schally, The Prostate 6:219-232 (1985) and P.E. Juniewicz et al. The Prostate 18:105-115 (1991), male Copenhagen rats were obtained from HARLAN-SPRAGUE-DAWLEY Inc. (Indianapolis, IN), and were individually housed in suspended wire cages and provided laboratory rodent chow (Purina 5001 pellets, Purina Mills, St. Louis, MO) and deionized water ad libum. The rats were anesthetized using sodium pentobarbital and the hair was clipped from the back dorsal area. Tumors from donor Copenhagen rats were cut into fragments of 10 mm^3 and implanted subcutaneously (one site per rat) into the prepared dorsal area.
Animals were selected (105 days post implantation) for the treatment phase based on tumor size. Ten animals were anesthetized with sodium pentobarbital and bilaterally castrated. The remaining animals were assigned to treatment groups (ten per group) based on mean group tumor size. Animals were kept separate throughout the study. The tested compounds were prepared in solution or suspension in a lecithin vehicle (L-α-phosphatidylcholine type XV-E) containing methylparaben and propylparaben. All treatments were performed by oral gavage (per os) at 2 cc/kg each day of study. Tumor size and rat body weights were recorded every seven days over a period of 35 days. Twenty-four hours after the last treatment animals were euthenized by CO2 and the tumors, prostate, seminal vesicles and testes were removed and weighed. In Table 4, average tumor growth is determined from the corrected group means over a 35 day period after treatment was started. […] The animals eliminated from the calculation of the corrected means were in Figure 6, animals 8, 9, 10; in Figure 7, animals 18, 19 and 20; in Figure 8, animals 27, 28, 29 and 30; and in Figure 9, animals 37, 39 and 40. The castrated controls in Figure 10 present a different problem. Here it is believed that the different tumor volumes observed throughout the group is attributable to the different sizes at the beginning of the study. Since the mean variance here is clearly attributable to factors other than the effect of the castration itself, animals 47, 48, 49 and 50 were deleted from the corrected mean. Of these, animal 47 died during the treatment period.
Table 4 indicates the average daily growth rate, measured from the corrected mean tumor size on day 35 and day 0, comparing MDL 105831 and flutamide (MDL 15910), a known androgen receptor antagonist. […]

SMILES | inhibition at 0.1 µM ([1]; preincubation 0 min) [%] | inhibition at 0.1 µM ([1]; preincubation 40 min) [%] | inhibition at 1 µM ([1]; preincubation 0 min) [%] | inhibition at 1 µM ([1]; preincubation 40 min) [%] | inhibition at 10 µM ([1]; preincubation 0 min) [%] | inhibition at 10 µM ([1]; preincubation 40 min) [%] | Tumor Growth in PC-82 Human Tumor in Male Nude Mice, Day 7 ([2]; Day 7, corrected group mean) [mm^3] | Tumor Growth in PC-82 Human Tumor in Male Nude Mice, Day 15 ([2]; Day 15, corrected group mean) [mm^3] | Tumor Growth in PC-82 Human Tumor in Male Nude Mice, Day 21 ([2]; Day 21, corrected group mean) [mm^3] | Tumor Growth in PC-82 Human Tumor in Male Nude Mice, Day 28 ([2]; Day 28, corrected group mean) [mm^3] | Tumor Growth in PC-82 Human Tumor in Male Nude Mice, Day 35 ([2]; Day 35, corrected group mean) [mm^3] | Tumor Growth in PC-82 Human Tumor in Male Nude Mice, Day -4 ([2]; Day -4 (before treatment), corrected group mean) [mm^3] | Δv/Δt (day 35-day 7) ([2]; average tumor growth over 28 days from corrected group means) [mm^3/day] | Tumor Growth in Dunning H Rat, Day 0 ([3]; Day 0 (baseline), corrected group mean) [mm^3] | Tumor Growth in Dunning H Rat, Day 7 ([3]; Day 7, corrected group mean) [mm^3] | Tumor Growth in Dunning H Rat, Day 16 ([3]; Day 16, corrected group mean) [mm^3] | Tumor Growth in Dunning H Rat, Day 21 ([3]; Day 21, corrected group mean) [mm^3] | Tumor Growth in Dunning H Rat, Day 29 ([3]; Day 29, corrected group mean) [mm^3] | Tumor Growth in Dunning H Rat, Day 35 ([3]; Day 35, corrected group mean) [mm^3] | Δv/Δt (day 35-day 0) ([3]; average daily growth rate from corrected mean tumor size) [mm^3/day]
CC12C=CC(=O)N[C@@H]1CCC1C2CCC2(C)C1CC[C@@H]2OC1CC1 (stereo partly drawn) [MDL 103,129, 17β-Cyclopropyloxy-4-aza-5α-androst-1-en-3-one] | 6.4 | 18.3 | 40.7 | 46.9 | 77.3 | 84.3 | – | – | – | – | – | – | – | – | – | – | – | – | – | –
CC(C)C(=O)Nc1ccc([N+](=O)[O-])c(C(F)(F)F)c1 [MDL 15910, N-(3-Trifluoromethyl-4-nitro-phenyl)-isobutyramide, reference compound] | – | – | – | – | – | – | 222.7 | 262.9 | 319.7 | 563.4 | 479.3 | 138.7 | 9.16 | 317.00 | 604.64 | 877.86 | 851.29 | 1313.57 | 1214.57 | 25.64
CN1C(=O)CC[C@@]2(C)C1=CC[C@H]1[C@@H]3CC[C@H](OC4CC4)[C@@]3(C)CC[C@@H]12 (stereo in doubt) [MDL 104,313, 17β-Cyclopropyloxy-4-methyl-4-aza-androst-5-en-3-one] | -18.4 | -8.7 | 23.8 | 39.9 | 63.6 | 70.2 | – | – | – | – | – | – | – | – | – | – | – | – | – | –
